Measured values taken from PubChem BioAssay (NCI).
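Step 1: Grow cells in 96-well plates. Step 2: Expose to compound for 48 hours at 5 concentrations. Step 3: Interpolate endpoints linearly; if unreached, use highest concentration. The concentration for 50% growth inhibition is given as GI50. Definition used: TGI = concentration required for complete inhibition of growth.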

Tests used:
Assay in all cases: NCI anticancer screen, dose series, 48 h
[1] = test system: CCRF-CEM leukemia
[2] = test system: EKVX NSCLC
[3] = test system: HOP-62 NSCLC
[4] = test system: LOX IMVI melanoma
[5] = test system: OVCAR-3 ovarian
[6] = test system: RXF 393 renal
[7] = test system: SNB-75 CNS
[8] = test system: T-47D breast
[9] = test system: UO-31 renal
[10] = test system: HOP-92 NSCLC

Compound | TGI [1] [µM] | TGI [2] [µM] | TGI [3] [µM] | TGI [4] [µM] | TGI [5] [µM] | TGI [6] [µM] | TGI [7] [µM] | TGI [8] [µM] | TGI [9] [µM] | TGI [10] [µM] | GI50 [1] [nM] | GI50 [10] [µM] | GI50 [5] [µM]
COc1ccc(N2CN(C)CSC2=S)cc1 | 87.2 | > 100 | 61.5 | > 100 | 24.4 | > 100 | > 100 | > 100 | > 100 | – | – | – | –
Cc1c(OCCCOc2ccc3c(=O)cc(-c4ccccc4)oc3c2C)ccc2c(=O)cc(-c3ccccc3)oc12 | > 100 | > 100 | > 100 | > 100 | > 100 | > 100 | – | – | > 100 | > 100 | – | – | –
C=CCOC(=O)c1c(C)n([O-])c2cc(Cl)c(Cl)cc2[n+]1=O | 45.9 | 41.1 | 57.6 | 32.9 | 40.8 | – | – | 49.3 | 59.8 | 53.1 | – | – | –
O=C1C(C(c2ccc([N+](=O)[O-])cc2)N2CCOCC2)=C(O)C(c2ccccc2)N1c1ccccc1 (centres undefined) | > 10 | > 10 | > 10 | > 10 | > 10 | > 10 | > 10 | > 10 | > 10 | – | – | – | –
Cc1ccc2n(c1)cc(-c1ccc(/C=N/NC(=N)N/N=C/c3ccc(-c4cn5cc(C)ccc5[n+]4C)cc3)cc1)[n+]2C | > 100 | > 100 | > 100 | – | – | – | 35.2 | > 100 | 44.1 | – | – | – | –
CCOC(=O)CCC(NC(=O)c1ccc(Nc2nc3cc(C(F)(F)F)ccc3nc2C(=O)OCC)cc1)C(=O)OCC (centres undefined) | > 100 | 38 | 27 | 36.2 | 26.7 | – | – | 29.7 | 24.6 | 9.95 | – | – | –
Brc1c2nc3ccccc3nc2n2ccc3ccccc3c12 | > 100 | > 100 | > 100 | > 100 | > 100 | – | > 100 | – | > 100 | > 100 | – | – | –
CC1(C)Oc2ccc3c(=O)cc(-c4cccs4)oc3c2C1C(=O)O (centres undefined) | > 100 | > 100 | > 100 | – | > 100 | > 100 | – | > 100 | – | – | – | – | –
COc1cccc2c1C(=O)c1c(O)c3c(c(O)c1C2=O)C[C@@](O)(C(=O)CN1CCOCC1)C[C@@H]3OC1CC(N)C(O)C(C)O1 (some centres undefined) | > 23.1 | 55.9 | 14.2 | 45.3 | 57.4 | 23.9 | 22.4 | – | 59.6 | 33.9 | 964 | 5.27 | 10.6
C/C=C/c1cc2c(c(=O)o1)C(=O)[C@@H](O)[C@H](C)O2 | 53.9 | 31 | 60.8 | 26.4 | 32.8 | 27.2 | 39 | – | 37.2 | 31.2 | – | – | –
N/C(=N\S(=O)(=O)c1ccc(-c2ccccn2)s1)Nc1ccc(Cl)cc1 | – | 26 | 39.2 | 33.5 | 67.6 | 35.3 | 45.7 | 45.6 | 34.9 | 28.9 | – | – | –
C[N+](C)=c1ccc2nc3c(ccc4ccccc43)oc-2c1 | 8.53 | 37.3 | 34.2 | 15.4 | 14 | 26 | 32.5 | – | 31.5 | 32.7 | – | – | –
COc1ccc(C2S/C(=C\c3cccc(OC)c3)C(=O)N2NC(=O)Cc2ccccc2)cc1 (centres undefined) | > 100 | – | > 100 | > 100 | – | > 100 | > 100 | – | > 100 | > 100 | – | – | –
COC(=O)CCCC1(CCCC(=O)OC)CCCCCCCCC(CCCC(=O)OC)(CCCC(=O)OC)C(=O)C1=O | – | > 100 | > 100 | 48.5 | 79.7 | 69.9 | 88.7 | > 100 | 0.3 | 39 | – | – | –
CO[C@H]1CC[C@]2(C)C3=CC[C@@]4(C)C(CC[C@@H]4C(C)CC[C@@H](C)C(C)C)C(=CCC2C1)O3 (some centres undefined) | > 25 | > 25 | > 25 | > 25 | > 25 | > 25 | > 25 | – | > 25 | > 25 | – | – | –
C[C@]12C(=O)C=CCC1=CC[C@@H]1[C@@H]2[C@H]2CC3(O)C(=O)O[C@@]4(C)[C@H]5C[C@@]6(C)[C@@H]7[C@@]2(O)[C@]1(OC[C@H]6C(=O)O5)O[C@]734 (some centres undefined) | > 100 | > 100 | – | 75.5 | – | 55.7 | > 100 | – | > 100 | > 100 | – | – | –
COCCOC(C)C(=O)C(O)S(=O)(=O)O (centres undefined) | > 100 | > 100 | > 100 | – | > 100 | > 100 | > 100 | > 100 | > 100 | > 100 | – | – | –
O=C(CNc1nccs1)Nn1cnc2ccc(S(=O)(=O)Nc3nccs3)cc2c1=O | > 100 | > 100 | > 100 | > 100 | > 100 | – | > 100 | – | > 100 | > 100 | – | – | –
Nc1nc(Nc2ccc(Cl)cc2)sc1C(=O)c1c[nH]c2ccccc12 | > 100 | – | 46.9 | 43.8 | 36 | 44.1 | 24.3 | 92.3 | 34.2 | 36.2 | – | – | –
CC(=O)Oc1c2c(c(OC(C)=O)c3c1n(C(C)=O)c1ccccc1n3C(C)=O)n(C(C)=O)c1ccccc1n2C(C)=O | 15.6 | – | 53.5 | 24.6 | 5.68 | 26.8 | 46.1 | – | 25.2 | – | – | – | –
COc1cc(N)c2[nH]c3c(C)ccc(C)c3c2c1 | > 100 | > 100 | > 100 | > 100 | > 100 | – | > 100 | – | > 100 | – | – | – | –
O=C(N/N=C\c1cccs1)c1ccncc1 | > 100 | > 100 | > 100 | – | > 100 | > 100 | > 100 | > 100 | > 100 | > 100 | – | – | –
Cc1ccc(/C(O)=C/c2nc3cccnc3[nH]c2=O)cc1 | > 100 | > 100 | 85.9 | > 100 | > 100 | 80.1 | – | > 100 | > 100 | > 100 | – | – | –
COC(=O)c1ccccc1NC(=S)NN(C)C | > 100 | > 100 | – | > 100 | > 100 | > 100 | > 100 | > 100 | > 100 | – | – | – | –
